US10281463B2, “Methods of determining cellular phenotypes” (Technion Research & Development Foundation Limited, priority 2015, dated 2019)

Key:
E. coli [1] = experiment: Antibiotic susceptibility testing of E. coli growth on photonic microarrays diffraction grating (relative EOT shift over time); assay type: cell-based; conditions: for Cross comparison of antibiotic effect at the same concentration (type of effect): 5 μg/mL of respective antibiotic, E. coli, FIG. 17; for MIC: Escherichia coli, E. coli proliferation on photonic microarrays diffraction grating, antibiotic introduced at time 0 at increasing concentrations, read-out: MIC (minimal inhibitory concentration) observed from EOT growth curves
From the text: A SiPA placed in a flow-device having an inlet and an outlet. […] Fluid containing bacteria is introduced through the inlet. Light reflected from the top and bottom of the pores is collected by the optical setup. The phase delay between the incident and the reflected light beams is proportional to the depth (L) of the pores, and the refractive index of the medium filling the pores. The presence of bacterial cells in the pores increase the refractive index of the pores. Thus, the phase delay of the reflected light in the presence of the bacteria differs from the phase delay of the reflected light in the absence of the bacteria, so that analysis of the light collected by the optical setup can provide indication regarding the phenotype of the cells.
The FFT provides the value (2 nL), where L is the average depth of the pores and n is their refractive index. This quantity is also referred to as the Effective Optical Thickness (EOT). The measured shift in the EOT value is a function of the change in the refraction index of the pole: ΔEOT/EOT0=2(Δn/n0)L, where n0 is the refractive index of the pores before the introduction of the bacteria into the pores, Δn is the change in the refractive index as a result of the introduction of the cells into the compartments, and EOT0 is the EOT before introducing the cells into the compartments. Δn is thus correlated with the pore's volume fraction occupied by bacteria cells.
Types of optical kinetic profiles made by bacterial cells on photonic microarrays diffraction grating (e.g., SiPA) include, without limitation, • 1. Bacteria cells are seeded into the pores/structures. Full growth media is supplied to the cells until a growth curve is established. • a. An anti-proliferation drug (bacteriostatic/antibiotics) is added to the media (see FIG. 7) and the correlation of EOT growth curve and drug concentration is analyzed. The MIC (minimal inhibitory concentration) is determined when the EOT shift becomes null. • b. If the drug is later remove from the media (see FIG. 8), the cell growth may resume, if the drug effect is reversible. • c. If the drug is bactericidal or its bacteriostatic effect is irreversible, then the EOT curve will retract as dead cells disintegrate and exit the pores (see FIG. 8). • d. If the growth media if deficient with critical nutrient or factor, then EOT growth curve will decline in relation to the deficiency (see FIG. 9). • 2. Bacteria suspension is introduced to the photonic microarrays diffraction grating under constant flow conditions, in salt buffer solution. • a. If the suspension contains an anti-attachment drug/factor that will affect pore/structure colonization, then correlation of EOT curve and drug concentration can be analyzed (see FIG. 10). • b. Once a stable EOT curve is established, the bacteria suspension is replaced with clean buffer to challenge the bacteria adhesion. If cells are rinsed out of the pores, EOT plot will retract (see FIG. 11).

E. coli [2] = experiment: E. coli colonization of SiPA as a function of surface functionality (rate of EOT shift); assay type: cell-based; conditions: FIG. 12A
Procedure: The method includes the continuous or rapid serial monitoring of the light interferometry spectra obtained from a surface with reflective periodic topography (PRT), prior, during and following the controlled introduction of bacterial suspensions to it and/or addition of drugs/substances. Said interferometry spectra is analyzed (for example by fast Fourier transform) to reveal the rate of optical shift, e.g., the time-dependent alterations in the reflected light properties of said PRT, inflicted by the behavior of the cells (for example settling, adhering, migrating or proliferating).
Types of optical kinetic profiles made by bacterial cells on photonic microarrays diffraction grating (e.g., SiPA) include, without limitation, • 1. Bacteria cells are seeded into the pores/structures. Full growth media is supplied to the cells until a growth curve is established. • a. An anti-proliferation drug (bacteriostatic/antibiotics) is added to the media (see FIG. 7) and the correlation of EOT growth curve and drug concentration is analyzed. The MIC (minimal inhibitory concentration) is determined when the EOT shift becomes null. • b. […] If the suspension contains an anti-attachment drug/factor that will affect pore/structure colonization, then correlation of EOT curve and drug concentration can be analyzed (see FIG. 10). • b. […]

MIC (E. coli [1]) [µg/mL] | Compound | Cross comparison of antibiotic effect at the same concentration (type of effect) (E. coli [1]) | Effect of WGA ligand in the suspension on WGA-improved colonization (E. coli [2]; NAG incorporated in the E. coli suspension, WGA-coated SiPA) | Improvement of E. Coli colonization over neat SiO2 or albumin (E. coli [2]; SiPA coated with WGA) [times]
0.005 to 0.05 | CO/N=C(\C(=O)N[C@@H]1C(=O)N2C(C(=O)O)=C(CSc3nc(=O)c(=O)[nH]n3C)CS[C@H]12)c1csc(N)n1 [Ceftriaxone Sodium] | bactericidal |  | 
0.005 to 0.05 | O=C(O)c1cn(C2CC2)c2cc(N3CCNCC3)c(F)cc2c1=O [Ciprofloxacin] | bacteriostatic |  | 
 | CC(=O)N[C@@H]1[C@@H](O)[C@H](O)[C@@H](CO)O[C@@H]1O [NAG] |  | completely eliminate this effect | 
5 to 50 | COc1cc(Cc2cnc(N)nc2N)cc(OC)c1OC [Trimethoprim] | below the MIC concentration |  | 
 | Wheat-germ agglutinin [WGA] |  |  | 5
